Data: patent publication US20190119284A1, “ErbB Inhibitors and Uses Thereof” (The Regents of the University of California, priority 2016, published 2019)
Where two headings read alike, the source gives them in different places.

What was measured:
NCI-H1975 = NCI-H1975 cell proliferation; assay type: cell-based; details: Homo sapiens, Table 8, n in the line below
A431 = A431 cell proliferation; assay type: cell-based; details: Homo sapiens, A-431; Table 8; n in the line below
Axl+ Ba/F3 cells = molecular target: T1, Axl+ Ba/F3 cells (Homo sapiens, UniProt P30530); experiment: Ba/F3 proliferation assay, Axl+; assay type: cell-based
T1 sequence (P30530 1-894): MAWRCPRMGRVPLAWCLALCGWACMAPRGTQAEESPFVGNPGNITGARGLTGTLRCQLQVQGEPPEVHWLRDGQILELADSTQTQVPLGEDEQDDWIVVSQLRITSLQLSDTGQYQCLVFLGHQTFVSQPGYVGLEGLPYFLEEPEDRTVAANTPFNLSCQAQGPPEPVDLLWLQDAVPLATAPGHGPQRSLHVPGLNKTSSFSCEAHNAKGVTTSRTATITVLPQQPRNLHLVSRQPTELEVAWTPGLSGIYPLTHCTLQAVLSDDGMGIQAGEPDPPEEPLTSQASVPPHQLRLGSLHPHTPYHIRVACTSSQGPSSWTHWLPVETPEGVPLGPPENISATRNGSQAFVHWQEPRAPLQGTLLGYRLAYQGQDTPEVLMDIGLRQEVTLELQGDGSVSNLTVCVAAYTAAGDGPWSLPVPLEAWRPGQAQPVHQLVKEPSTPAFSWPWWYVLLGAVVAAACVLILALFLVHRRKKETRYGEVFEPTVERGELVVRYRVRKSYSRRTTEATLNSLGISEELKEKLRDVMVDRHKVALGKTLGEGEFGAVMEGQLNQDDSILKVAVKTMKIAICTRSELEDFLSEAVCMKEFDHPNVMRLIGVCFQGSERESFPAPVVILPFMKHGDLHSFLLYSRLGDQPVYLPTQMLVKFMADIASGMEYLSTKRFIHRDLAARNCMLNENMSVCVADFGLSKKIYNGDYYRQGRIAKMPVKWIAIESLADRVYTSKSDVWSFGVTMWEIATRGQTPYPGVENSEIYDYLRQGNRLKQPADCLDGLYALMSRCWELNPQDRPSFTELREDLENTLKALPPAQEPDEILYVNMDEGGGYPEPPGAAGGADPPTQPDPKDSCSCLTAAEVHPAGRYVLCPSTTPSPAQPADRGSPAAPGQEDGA
Procedure: (§1) To validate the screen and test the effectiveness of counter-screening with either the same 2YF/3wt Ba/F3 cell line or the parental Ba/F3's in the presence of IL-3 to remove cytotoxic primary hits, we first tested a panel of kinase inhibitors with established mechanisms of action.
For Axl+ cells, the transduced cells were spun down at 500×g for 5 min and resuspended in media supplemented with 10 ng/mL IL-3 and 3 μg/mL puromycin (Invitrogen). Cells were maintained in these conditions for 7 days, passaging as required. After 7 days the cells were spun down, washed with fresh media, and then suspended in IL-3 free media. The cells were maintained in these conditions for 2 weeks to select for an IL-3 independent population of Axl+ driven cells.
(§2) Proliferation Assays. For adherent cell lines, cells were plated onto opaque white 96 well plates (Greiner cat #655083) and allowed to adhere overnight. The following day media was changed to fresh media that contained either DMSO or the indicated concentration of drug plus NRG (50 ng/mL final concentration) as indicated. Plates were incubated at 37° C. for 72 h and proliferation was read out using Cell Titer Glo (Promega) according to the manufacturer's protocol. For Ba/F3 cell proliferation, cells, drug dilution, and any necessary growth factors (10 ng/mL IL-3 or 6.25 ng/mL NRG) were combined in a well of a 96 well plate. Plates were incubated at 37° C. for 48 h and proliferation was read out using Cell Titer Glo according to the manufacturer's protocol. For all normalized assays, proliferation was normalized to the DMSO control condition. All graphs were plotted in GraphPad Prism 6 and fit with a non-linear regression of the log(inhibitor) vs response with a variable slope where shown. All graphs are averages (+/−standard deviation) of biological triplicates each performed in technical triplicate unless otherwise noted. If only one biological replicate was performed standard deviations were derived from the technical replicates.

[1] = system: parental Ba/F3 cells + IL-3; experiment: Ba/F3 proliferation assay, Parental + IL-3; assay type: cell-based; details: Mus musculus, BaF3; Tables 7 and 8; read-out: Ba/F3 line IC50, Parental + IL-3
Procedure: as §1, §2

[2] = molecular target: 2YF/3wt + NRG Ba/F3 cells (HER2YF/HER3wt) (Homo sapiens, UniProt P04626, Y1005F/Y1023F/Y1112F/Y1127F/Y1139F/Y1196F/Y1221F/Y1222F/Y1248F, cells depend on it); experiment: Ba/F3 proliferation assay, 2YF/3wt + NRG; assay type: cell-based
Chain of 2YF/3wt + NRG Ba/F3 cells (HER2YF/HER3wt) (P04626 whole entry Y1005F/Y1023F/Y1112F/Y1127F/Y1139F/Y1196F/Y1221F/Y1222F/Y1248F): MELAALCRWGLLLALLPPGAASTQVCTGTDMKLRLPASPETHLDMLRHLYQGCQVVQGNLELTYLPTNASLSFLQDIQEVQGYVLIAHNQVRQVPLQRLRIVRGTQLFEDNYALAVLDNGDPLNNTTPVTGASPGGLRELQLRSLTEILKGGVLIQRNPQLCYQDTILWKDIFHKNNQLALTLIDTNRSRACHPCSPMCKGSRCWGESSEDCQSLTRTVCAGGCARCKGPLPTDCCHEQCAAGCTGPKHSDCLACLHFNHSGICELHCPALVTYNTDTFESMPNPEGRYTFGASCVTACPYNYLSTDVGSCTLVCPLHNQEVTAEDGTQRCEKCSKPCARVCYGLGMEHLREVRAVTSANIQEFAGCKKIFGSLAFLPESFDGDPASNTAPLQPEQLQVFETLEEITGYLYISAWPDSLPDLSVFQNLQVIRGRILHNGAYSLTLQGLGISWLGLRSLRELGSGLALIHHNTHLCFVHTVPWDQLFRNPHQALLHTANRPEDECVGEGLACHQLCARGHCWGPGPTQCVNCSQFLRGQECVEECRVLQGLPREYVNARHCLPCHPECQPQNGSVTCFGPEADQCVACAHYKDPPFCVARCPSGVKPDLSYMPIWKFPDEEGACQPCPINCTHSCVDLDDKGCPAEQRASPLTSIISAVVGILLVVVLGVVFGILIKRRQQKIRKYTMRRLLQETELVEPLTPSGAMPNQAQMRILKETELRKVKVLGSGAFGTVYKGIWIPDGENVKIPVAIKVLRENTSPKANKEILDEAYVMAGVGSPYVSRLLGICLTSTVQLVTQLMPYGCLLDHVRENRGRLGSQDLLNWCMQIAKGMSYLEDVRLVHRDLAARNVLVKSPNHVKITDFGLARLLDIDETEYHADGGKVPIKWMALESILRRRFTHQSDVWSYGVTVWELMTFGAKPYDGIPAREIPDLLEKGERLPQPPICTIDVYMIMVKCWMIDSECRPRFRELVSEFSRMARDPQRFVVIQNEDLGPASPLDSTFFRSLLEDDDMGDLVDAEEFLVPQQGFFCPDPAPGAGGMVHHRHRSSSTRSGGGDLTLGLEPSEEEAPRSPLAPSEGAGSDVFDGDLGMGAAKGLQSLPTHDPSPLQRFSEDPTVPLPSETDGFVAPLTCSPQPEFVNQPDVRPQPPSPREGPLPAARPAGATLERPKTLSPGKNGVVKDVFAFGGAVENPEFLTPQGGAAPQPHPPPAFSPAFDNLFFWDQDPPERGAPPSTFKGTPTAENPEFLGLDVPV
From the text: Ba/F3 cells are normally dependent on IL-3 signaling for their proliferation and survival, but can be made dependent on introduced oncogenic signals. We sequentially selected transduced Ba/F3 cells for populations stably expressing HER3 and then HER2. To ensure that all of the proliferative signal could be attributed to HER2/HER3 heterodimers, rather than HER2 homodimers, the 9 C-terminal tyrosines in HER2 were mutated to phenylalanine (HER2YF). We then withdrew IL-3 and supplemented the media with NRG to select for NRG dependent HER2YF/HER3wt cells (2YF/3wt).
For the 2YF/3wt cells, the parental cells were first transduced with HER3 according to the protocol above and were then spun down at 500×g for 5 min and re-suspended in media supplemented with 10 ng/mL IL-3 and 3 μg/mL puromycin (Invitrogen). Cells were maintained in these conditions for seven days, passaging as required. After seven days the cells were spun down, washed with fresh media, and then used for a subsequent round of transduction according to the protocol above with HER2YF virus. […] The cells were maintained in these conditions for seven days, passaging as required. After seven days the cells were spun down, washed with fresh media, and then suspended in media supplemented with 10 ng/mL of NRG. Cells were maintained in these conditions for seven days to select for a NRG dependent population of 2YF/3wt Ba/F3 cells that were then maintained as described above. The same protocol was used for the 2YF-L755S/3wt, 2YF-YVMA/3wt, and 2YF-VC/3wt cell lines using the indicated constructs.
Proliferation Assays. […] The following day media was changed to fresh media that contained either DMSO or the indicated concentration of drug plus NRG (50 ng/mL final concentration) as indicated. […] For all normalized assays, proliferation was normalized to the DMSO control condition. All graphs were plotted in GraphPad Prism 6 and fit with a non-linear regression of the log(inhibitor) vs response with a variable slope where shown. All graphs are averages (+/−standard deviation) of biological triplicates each performed in technical triplicate unless otherwise noted. If only one biological replicate was performed standard deviations were derived from the technical replicates.

HCC827 = HCC827 cell viability; assay type: cell-based; details: Homo sapiens, compound at 1 nM, n in the line below, read-out: HCC827 (% viable at 1 nM)
HER2+/2VE Ba/F3 line = experiment: Ba/F3 proliferation assay, HER2+/2VE; assay type: cell-based; details: Mus musculus, BaF3; Tables 7 and 8
Procedure: as §2

[3] = Mouse Liver Microsome stability assay; assay type: in vitro ADME; details: mouse liver microsomes
[4] = system: HER2YF/HER3E928G (2YF/3EG) Ba/F3 cells; experiment: Ba/F3 proliferation assay, 2YF/3EG +/- NRG; assay type: cell-based; details: + NRG vs no NRG
From the text: Consistent with the results in the HER2 overexpressing cell lines, CW-2 cells that harbor a HER3-activating mutation were equally sensitive to compound 3+/−NRG in both proliferation and signaling assays (FIGS. 6A-6B). […] To further evaluate the potential of compound 3 against HER2 mutants within a HER2/HER3 heterodimer we transduced wt HER3 containing Ba/F3 cells with reported HER2 oncogenic mutants in the HER2YF construct.
For HER2YF/3EG Ba/F3 cells were selected according to the protocol for the HER2YF/3TM Ba/F3's with the exception that no NRG was supplemented in the media during IL-3 independent selection.
as §2

[5] = system: 2YF/3wt + IL-3 Ba/F3 cells; experiment: Ba/F3 proliferation assay, 2YF/3wt + IL-3; assay type: cell-based; details: Mus musculus, BaF3; Table 4; ± S.D., n = 3; 48 h Cell Titer Glo
Procedure: as §1, §2

[6] = system: Ba/F3 cell line panel (HER2YF/HER3); experiment: 48 h proliferation of the Ba/F3 cell line panel (CellTiter-Glo); assay type: cell-based; details: 48 h proliferation curves
Procedure: FIGS. 3A-3D. Design and execution of a high-throughput screen identifies a novel HER2/HER3 inhibitor. FIG. 3A: 2YF/3wt cells were incubated in the presence or absence of NRG for 48 h and proliferation was assessed by CellTiter-Glo (mean±SD, n=1). […] FIG. 3C: Structure and proliferation curves for hit compound 1 (also referred herein as compound 185) against the Ba/F3 cell line panel (mean±SD, n=3), FIG. 3D: Structure and proliferation curves for compound 2 (also referred to herein as compound 55A) against the panel of Ba/F3 cell lines (mean±SD, n=3).
FIGS. 4A-4F. Compound 2 is a selective Type I inhibitor for HER2. […] FIG. 4B: Thermal stabilization of the HER3 kinase domain by either compound 2 or ATP as determined by Thermofluor (mean±SD, n=3). FIGS. 4C-4D: The crystal structure of either erlotinib (FIG. 4C) or 2 (FIG. 4D) bound to EGFR V924R. The kinase domain in complex with compound 2 has been stabilized in the active confirmation by drug binding, despite the mutation—as evidenced by the ordered extension of the activation loop and the inward positioning of the α-C helix.
FIGS. 5A-5D. […] FIG. 5A: Chemical structure of compound 3 (also referred to herein as compound 178). FIG. 5B: Proliferation curves for compound 3 against the Ba/F3 cell line panel (mean±SD, n=3). […] FIG. 5D: The same assay in FIG. 2A was performed with compound 3 in SK-BR-3 cells.
FIG. 10. […]

[7] = Tables 7 and 8, read-out: Ba/F3 line IC50, Axl+
[8] = Tables 7 and 8, read-out: Ba/F3 line IC50, HER2YF/HER3 + NRG

Row | IC50 (NCI-H1975) | IC50 (A431) | GI50 (Axl+ Ba/F3 cells; [7]) | GI50 [2, 8] | IC50 (HER2+/2VE Ba/F3 line) | WuXi Microsomal stability (Mouse Extraction Ratio) [3] | GI50 (Axl+ Ba/F3 cells; Table 4, ± S.D., n = 3, 48 h Cell Titer Glo, read-out: IC50, Axl) | IC50 [5] | GI50 ([2]; Table 4, ± S.D., n = 3, 48 h Cell Titer Glo, read-out: IC50, 2YF/3wt + NRG) | SMILES | IC50 [1] | viability at 0.001 µM (HCC827) | reduction of sensitivity on addition of NRG [4] | level of pathway inhibition distinguished by the Ba/F3 panel [6]
1 | 891 ± 18.6 nM | 471 ± 63.4 nM | 501 nM | 2 nM | 31.4 nM | – | – | – | – | COc1ccc(-c2ccccc2)cc1Nc1ncnc2[nH]nc(-c3cc[nH]n3)c12 [8-096] | 1540 nM | 30.6 ± 4.2% | – | –
2 | 814 ± 59 nM | 343 ± 169 nM | 1560 nM | 1.5 nM | 46.4 nM | – | – | – | – | CN(C)c1ccc(-c2ccsc2)cc1Nc1ncnc2[nH]nc(-c3ccn(C)n3)c12 [104B] | ~2000 nM | 25.2 ± 3.4% | – | –
3 | 1420 ± 117 nM | 634 ± 188 nM | 697 nM | 9.25 nM | 120 nM | – | – | – | – | COc1ccc(-c2ccsc2)cc1Nc1ncnc2[nH]cc(-c3cc[nH]n3)c12 [8-091] | 2590 nM | 80.9 ± 24% | – | –
4 | 2540 nM | 911 nM | 1570 nM | 227 nM | 895 nM | – | – | – | – | COc1ccc(-c2ccccn2)cc1Nc1ncnc2[nH]cc(-c3cc[nH]n3)c12 [8-090] | 2250 nM | 102% | – | –
5 | 507 ± 85.1 nM | 290 ± 71 nM | 612 nM | 1 nM | 13.7 nM | – | – | – | – | COc1ccc(-c2ccccc2)cc1Nc1ncnc2[nH]nc(-c3ccn(C)n3)c12 [8-097] | 1770 nM | 29.5 ± 7.1% | – | –
6 | 2250 ± 54 nM | 914 ± 134 nM | 1160 nM | 20.8 nM | 118 nM | – | – | – | – | COc1ccc(-c2ccccc2)cc1Nc1ncnc2[nH]cc(-c3cc[nH]n3)c12 [8-089] | 2440 nM | 99.9 ± 14.6% | – | –
7 | – | – | 1170 nM | 6.8 nM | 70.3 nM | 0.948 | – | – | – | COc1ccc(-c2ccoc2)cc1Nc1ncnc2[nH]cc(-c3cc[nH]n3)c12 [compound 178] | 2540 nM | – | – | –
8 | 720 ± 30 nM | 330 ± 125 nM | 844 nM | 1.5 nM | 48.5 nM | 0.87 | – | – | – | CN(C)c1ccc(-c2ccsc2)cc1Nc1ncnc2[nH]nc(-c3cc[nH]n3)c12 [104A] | 1600 nM | 29.8 ± 2.7% | – | –
9 | 1900 ± 134 nM | 762 ± 215 nM | 1200 nM | 20.5 nM | 232 nM | – | – | – | – | COc1ccc(-c2cccs2)cc1Nc1ncnc2[nH]cc(-c3cc[nH]n3)c12 [8-092] | > 3330 nM | 81.6 ± 21.1% | – | –
10 | – | – | – | – | – | – | > 3330 nM | > 10000 nM | 399 ± 111 nM | CC(C)(O)CC(=O)NCCn1ccc2ncnc(Nc3ccc(Oc4cccc(C(F)(F)F)c4)c(Cl)c3)c21 [TAK-285, reference compound] | – | – | 40 fold | –
11 | 1740 ± 157 nM | 1120 ± 59 nM | 1310 nM | 5 nM | 46.7 nM | – | – | – | – | COc1ccc(-c2ccccc2)cc1Nc1ncnc2[nH]cc(-c3ccn(C)n3)c12 [8-095] | > 3330 nM | 49.2 ± 13.7% | – | –
12 | – | – | – | – | – | – | – | – | – | CC(=O)Nc1nc(C)c(-c2ccc(Cl)c(S(=O)(=O)NCCO)c2)s1 [PIK-93] | – | – | – | hit downstream
